Where two headings read alike, the source gives them in different places.
Key:
[1] = tested on: NL4-3 HIV-1 with INLAI-selected IN single point mutations; assay type: cell-based
HIV-1 IN = target: T1, HIV-1 IN (Human immunodeficiency virus type 1 group M subtype B, UniProt P12497); assay: HTRF IN multimerization assay; assay type: biochemical; conditions: mean ± SD
T1 construct: made in house
From the text: A key property of INLAIs is the ability to promote HIV-1 IN homo-multimerization ([39][–][42]). […] The maximal signal (plateau) in our IN aggregation assay corresponds to the highest HTRF signal increase under saturating INLAI concentration, relative to baseline level. Thus, MUT916, MUT884, MUT871, and MUT872 increased HIV-1 IN aggregation 3.7 to 4.4-fold, while BDM-2, BI-224436, and S-I-82 did so 5 to 6-fold (Table 1).

NL4-3 HIV-1 strain = assay: Multiple-round infection assay in MT4 cells, NL4-3; assay type: cell-based; conditions: MT4 cells
[2] = set-up: method as in ref 20 = [20]; 20 Single ascending dose trial investigating safety, tolerability and pharmacokinetics of BDM-2 in healthy male subjects . https://clinicaltrials.gov/ct2/show/NCT03634085 . Accessed 17 July 2020 .; conditions: single ascending dose, healthy male subjects; cited from earlier work
[3] = tested on: recombinant NL4-3 viruses with polymorphisms at IN positions 124 and 125; assay: Multiple-round infection of MT4 cells with recombinant NL4-3 viruses polymorphic at IN positions 124 and 125; assay type: cell-based, HIV-1
Outline: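 EC50 fold change relative to wild-type TT NL4-3 was derived from CellTiter-Glo viability of exponentially growing MT4 cells (10^6/mL). Cells were exposed for 2 h, with compounds, to NL4-3 clones bearing one of 15 IN 124/125 variants at MOI 0.001.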

[4] = tested on: primary HIV-1 isolates with polymorphisms at IN positions 124 and 125; assay: Multiple-round infection of MT4 cells with primary HIV-1 isolates polymorphic at IN positions 124 and 125; assay type: cell-based; conditions: primary isolate
Outline: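 Antiviral potency read as protection of cell viability (CellTiter-Glo luminescence). Infection at MOI 0.001 lasted 2 h with compound present at a range of concentrations, using MT4 cells at 10^6/mL in exponential growth.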

HXB2 HIV-1 strain = assay: Multiple-round infection assay in MT4 cells, HXB2; assay type: cell-based; conditions: Human immunodeficiency virus 1, HXB2; multiple-round infection, MT4 cells; mean ± SD, n > 5; read-out: EC50 HXB2
Outline: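 Antiviral read-out was CellTiter-Glo luminescent viability of exponentially growing MT4 cells (10^6/mL). Cells were exposed to HIV-1 for 2 h at an MOI of 0.001 while compound was present at varying concentrations.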

[5] = target: HIV-1 IN-LEDGF/p75 interaction (Human immunodeficiency virus type 1 group M subtype B, UniProt P12497); assay: biochemical
Procedure: (§1) The INLAIs were tested for the ability to inhibit the HIV-1 IN-LEDGF/p75 interaction in a homogeneous time-resolved fluorescence (HTRF) assay. Our assays used either full-length IN and LEDGF/p75 proteins or their respective minimally sufficient interaction domains: the CCD of HIV-1 IN and the IBD of LEDGF/p75 (Table 1).
(§2) HTRF-based CCD-IBD interaction, IN-LEDGF/p75 interaction and IN multimerization assays were performed as described previously ([12]).

[6] = tested on: lab-adapted and clinical HIV-1 isolates; assay: Infection assays in primary T CD4+ lymphocytes; assay type: cell-based; conditions: Human immunodeficiency virus 1, Lymphocyte
[7] = tested on: VSV-G-pseudotyped NL4-3Δenv-luc; assay: microbe, parasite or virus in culture; assay type: cell-based, HIV-1
[8] = target: CCD of HIV-1 IN and IBD of LEDGF/p75 (Human immunodeficiency virus type 1 group M subtype B, UniProt P12497); assay: biochemical
Procedure: as §1, §2

[9] = Cytotoxicity assay in MT4 cells; assay type: cell-based; conditions: human, MT4 cells (proliferating human T-cell line), CellTiter-Glo
From the text: Growth inhibition was monitored in a proliferating human T-cell line (MT4) with different concentrations of compounds, using the CellTiter-Glo luminescent reagent (Promega), as previously described ([12]).

Cc1ccc(C2CC2)c(-c2ccc3c(c2)CCCO3)c1[C@H](OC(C)(C)C)C(=O)O [BDM-2]
EC50 fold change compared to wild type NL4-3, A128T [1]: 4 | EC50 fold change compared to wild type NL4-3, H171Q [1]: 3 | EC50 fold change compared to wild type NL4-3, N222K [1]: 2 | EC50 fold change compared to wild type NL4-3, T174I [1]: 253 | EC50 fold change compared to wild type NL4-3, Y99H [1]: 4 | AC50 (HIV-1 IN; concentration for 50% maximum activation of multimerization): 20 ± 11 nM | IN multimerization Plateau (HIV-1 IN; maximum multimerization reached versus baseline): 560 ± 150% | EC90 (NL4-3 HIV-1 strain; Human immunodeficiency virus 1, NL43, multiple-round infection, from dose response curves, read-out: EC90 NL4-3): 13 ± 5.1 nM | EC50 (NL4-3 HIV-1 strain; Human immunodeficiency virus 1, NL43, multiple-round infection, mean ± SD, n > 5, read-out: EC50 NL4-3): 8.7 ± 2.8 nM | Selectivity index CC50/EC50 NL4-3 (NL4-3 HIV-1 strain): 7,931 | safety in phase I clinical trial [2]: without any serious adverse event and few mild adverse events | Fold change in EC50 relative to parental NL4-3, AA ([3]; recombinant NL4-3, IN 124/125 AA): 1 | Fold change in EC50 relative to parental NL4-3, AM ([3]; recombinant NL4-3, IN 124/125 AM): 0.4 | Fold change in EC50 relative to parental NL4-3, AT ([3]; recombinant NL4-3, IN 124/125 AT): 1 | Fold change in EC50 relative to parental NL4-3, AV ([3]; recombinant NL4-3, IN 124/125 AV): 2 | Fold change in EC50 relative to parental NL4-3, GA ([3]; recombinant NL4-3, IN 124/125 GA): 1 | Fold change in EC50 relative to parental NL4-3, GT ([3]; recombinant NL4-3, IN 124/125 GT): 1 | Fold change in EC50 relative to parental NL4-3, NA ([3]; recombinant NL4-3, IN 124/125 NA): 1 | Fold change in EC50 relative to parental NL4-3, NT ([3]; recombinant NL4-3, IN 124/125 NT): 1 | Fold change in EC50 relative to parental NL4-3, NV ([3]; recombinant NL4-3, IN 124/125 NV): 1 | Fold change in EC50 relative to parental NL4-3, SA ([3]; recombinant NL4-3, IN 124/125 SA): 1 | Fold change in EC50 relative to parental NL4-3, ST ([3]; recombinant NL4-3, IN 124/125 ST): 1 | Fold change in EC50 relative to parental NL4-3, TA ([3]; recombinant NL4-3, IN 124/125 TA): 1 | Fold change in EC50 relative to parental NL4-3, TM ([3]; recombinant NL4-3, IN 124/125 TM): 0.3 | Fold change in EC50 relative to parental NL4-3, TV ([3]; recombinant NL4-3, IN 124/125 TV): 1 | Fold change in EC50 relative to parental NL4-3, CAM2BBY (CRF02) ([4]; IN 124/125 AA): 2 | Fold change in EC50 relative to parental NL4-3, E0836M4 (D) ([4]; IN 124/125 AA): 1 | Fold change in EC50 relative to parental NL4-3, KER2008 (A) ([4]; IN 124/125 AA): 1 | Fold change in EC50 relative to parental NL4-3, NP1525 (CRF01) ([4]; IN 124/125 AA): 1 | Fold change in EC50 relative to parental NL4-3, NP1695 (CRF02) ([4]; IN 124/125 AA): 2 | Fold change in EC50 relative to parental NL4-3, TZA125 (C) ([4]; IN 124/125 AA): 0.4 | Fold change in EC50 relative to parental NL4-3, KSM4030 (A) ([4]; IN 124/125 GA): 2 | Fold change in EC50 relative to parental NL4-3, vGA (C) ([4]; IN 124/125 GA): 4 | Fold change in EC50 relative to parental NL4-3, 99ET14 (C) ([4]; IN 124/125 NA): 1 | Fold change in EC50 relative to parental NL4-3, NP1538 (B) ([4]; IN 124/125 NA): 2 | Fold change in EC50 relative to parental NL4-3, vNA_1 (B) ([4]; IN 124/125 NA): 2 | Fold change in EC50 relative to parental NL4-3, vNA_2 (CRF02) ([4]; IN 124/125 NA): 3 | Fold change in EC50 relative to parental NL4-3, vNV (B) ([4]; IN 124/125 NV): 2 | Fold change in EC50 relative to parental NL4-3, vSA_1 (B) ([4]; IN 124/125 SA): 3 | Fold change in EC50 relative to parental NL4-3, vSA_2 (CRF02) ([4]; IN 124/125 SA): 3 | Fold change in EC50 relative to parental NL4-3, vTA_1 (B) ([4]; IN 124/125 TA): 2 | Fold change in EC50 relative to parental NL4-3, vTA_2 (CRF02) ([4]; IN 124/125 TA): 1 | EC50 (HXB2 HIV-1 strain): 4.5 ± 1.2 nM | IC50 [5]: 47 ± 14 nM | EC50 ([6]; read-out: EC50 33913N (B)): 4.2 ± 1.6 nM | EC50 ([6]; read-out: EC50 HXB2 (B)): 3.4 ± 1 nM | EC50 ([6]; read-out: EC50 KER2008 (A)): 8.1 ± 1.3 nM | EC50 ([6]; read-out: EC50 NL4-3 (B)): 8.3 ± 4.3 nM | EC50 ([6]; read-out: EC50 NP1525 (CRF01_AE)): 11 ± 5 nM | EC50 ([6]; read-out: EC50 NP1538 (B)): 13 ± 6 nM | EC50 ratio (single/multiple-round infection) [7]: 161 | EC50 ([7]; Human immunodeficiency virus 1, NL43, MT4, read-out: EC50 in single-round infection): 1400 ± 300 nM | IC50 [8]: 150 ± 30 nM | CC50 [9]: 69000 ± 8000 nM
